Tests used:
Assay in all cases: BIO3-BIO1 mutant enzyme activity in the presence of herbicide, percentage inhibition (fluorometric DAPA assay)
Assay type in all cases: biochemical
Conditions in all cases: read-out: percentage inhibition
[1] = target: T1, Arabidopsis thaliana BIO3-BIO1 (BioDA) mutants (Arabidopsis thaliana, UniProt B0F481, Y511C)
T1 construct: with the predicted N-terminal mitochondrial transit peptide removed; 6xHis-tag (N); thrombin cleavage site (N); made in house; host or cells: E. coli BL21 (DE3) bioA
Procedure, shortened: (§1)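 Percentage inhibition compares activity at one of three herbicide concentrations against DMSO, from o-phthalaldehyde-derivatised DAPA fluorescence (ex 410, em 470 nm). Purified N-His BIO3-BIO1 variants (50 nM, E. coli-expressed) saw herbicide 10 min at 20 °C in pH 8.6 EPPS buffer, then 20 μM KAPA plus 100 μM spermidine for 75 min at 20 °C.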

[2] = target: T2, Arabidopsis thaliana BIO3-BIO1 (BioDA) mutants (Arabidopsis thaliana, UniProt B0F481, Y511V)
T2 construct: with the predicted N-terminal mitochondrial transit peptide removed; 6xHis-tag (N); thrombin cleavage site (N); made in house; host or cells: E. coli BL21 (DE3) bioA
Procedure, shortened: as §1

[3] = target: T3, Arabidopsis thaliana BIO3-BIO1 (BioDA) mutants (Arabidopsis thaliana, UniProt B0F481, Y511R)
T3 construct: with the predicted N-terminal mitochondrial transit peptide removed; 6xHis-tag (N); thrombin cleavage site (N); made in house; host or cells: E. coli BL21 (DE3) bioA
Procedure, shortened: as §1

[4] = target: T4, Arabidopsis thaliana BIO3-BIO1 (BioDA) mutants (Arabidopsis thaliana, UniProt B0F481, Y511F)
T4 construct: with the predicted N-terminal mitochondrial transit peptide removed; 6xHis-tag (N); thrombin cleavage site (N); made in house; host or cells: E. coli BL21 (DE3) bioA
Procedure, shortened: as §1

[5] = target: T5, Arabidopsis thaliana BIO3-BIO1 (BioDA) mutants (Arabidopsis thaliana, UniProt B0F481, Y511M)
T5 construct: with the predicted N-terminal mitochondrial transit peptide removed; 6xHis-tag (N); thrombin cleavage site (N); made in house; host or cells: E. coli BL21 (DE3) bioA
Procedure, shortened: as §1

[6] = target: T6, Arabidopsis thaliana BIO3-BIO1 (BioDA) mutants (Arabidopsis thaliana, UniProt B0F481, T512G)
T6 construct: with the predicted N-terminal mitochondrial transit peptide removed; 6xHis-tag (N); thrombin cleavage site (N); made in house; host or cells: E. coli BL21 (DE3) bioA
Procedure, shortened: as §1

[7] = target: T7, Arabidopsis thaliana BIO3-BIO1 (BioDA) mutants (Arabidopsis thaliana, UniProt B0F481, P347A)
T7 construct: with the predicted N-terminal mitochondrial transit peptide removed; 6xHis-tag (N); thrombin cleavage site (N); made in house; host or cells: E. coli BL21 (DE3) bioA
Procedure, shortened: as §1

[8] = target: T8, Arabidopsis thaliana BIO3-BIO1 (BioDA) mutants (Arabidopsis thaliana, UniProt B0F481, P510E)
T8 construct: with the predicted N-terminal mitochondrial transit peptide removed; 6xHis-tag (N); thrombin cleavage site (N); made in house; host or cells: E. coli BL21 (DE3) bioA
Procedure, shortened: as §1

[9] = target: T9, Arabidopsis thaliana BIO3-BIO1 (BioDA) mutants (Arabidopsis thaliana, UniProt B0F481, Q517H)
T9 construct: with the predicted N-terminal mitochondrial transit peptide removed; 6xHis-tag (N); thrombin cleavage site (N); made in house; host or cells: E. coli BL21 (DE3) bioA
Procedure, shortened: as §1

[10] = target: T10, Arabidopsis thaliana BIO3-BIO1 (BioDA) mutants (Arabidopsis thaliana, UniProt B0F481, T512R)
T10 construct: with the predicted N-terminal mitochondrial transit peptide removed; 6xHis-tag (N); thrombin cleavage site (N); made in house; host or cells: E. coli BL21 (DE3) bioA
Procedure, shortened: as §1

[11] = target: T11, Arabidopsis thaliana BIO3-BIO1 (BioDA) mutants (Arabidopsis thaliana, UniProt B0F481, P508L)
T11 construct: with the predicted N-terminal mitochondrial transit peptide removed; 6xHis-tag (N); thrombin cleavage site (N); made in house; host or cells: E. coli BL21 (DE3) bioA
Procedure, shortened: as §1

[12] = target: T12, Arabidopsis thaliana BIO3-BIO1 (BioDA) mutants (Arabidopsis thaliana, UniProt B0F481, P529A)
T12 construct: with the predicted N-terminal mitochondrial transit peptide removed; 6xHis-tag (N); thrombin cleavage site (N); made in house; host or cells: E. coli BL21 (DE3) bioA
Procedure, shortened: as §1

T7 sequence (B0F481 23-833 P347A): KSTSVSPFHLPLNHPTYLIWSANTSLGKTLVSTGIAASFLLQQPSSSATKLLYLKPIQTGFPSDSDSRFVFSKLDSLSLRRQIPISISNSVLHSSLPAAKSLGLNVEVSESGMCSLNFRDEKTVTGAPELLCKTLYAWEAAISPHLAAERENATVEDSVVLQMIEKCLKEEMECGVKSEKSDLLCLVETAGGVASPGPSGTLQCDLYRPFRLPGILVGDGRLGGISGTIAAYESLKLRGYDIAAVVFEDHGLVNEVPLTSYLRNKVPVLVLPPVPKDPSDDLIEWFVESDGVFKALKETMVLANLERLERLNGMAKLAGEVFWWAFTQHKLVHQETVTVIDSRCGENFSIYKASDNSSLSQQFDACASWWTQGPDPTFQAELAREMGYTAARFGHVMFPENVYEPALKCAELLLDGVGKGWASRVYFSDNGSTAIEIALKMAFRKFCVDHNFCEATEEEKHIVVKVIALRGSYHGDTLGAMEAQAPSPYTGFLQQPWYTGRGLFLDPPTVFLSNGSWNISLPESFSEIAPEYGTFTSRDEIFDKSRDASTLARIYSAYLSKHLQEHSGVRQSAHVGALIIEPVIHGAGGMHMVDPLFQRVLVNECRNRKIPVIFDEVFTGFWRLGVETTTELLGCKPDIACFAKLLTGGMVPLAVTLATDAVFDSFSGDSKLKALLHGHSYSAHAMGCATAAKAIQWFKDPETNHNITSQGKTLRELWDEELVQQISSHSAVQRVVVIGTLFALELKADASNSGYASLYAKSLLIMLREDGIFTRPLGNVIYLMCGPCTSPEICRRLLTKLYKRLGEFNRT
T12 sequence (B0F481 23-833 P529A): as the sequence (B0F481 23-833 P347A) above, with A325P, P507A counted along it
T1 sequence (B0F481 23-833 Y511C): as the sequence (B0F481 23-833 P347A) above, with A325P, Y489C counted along it
T8 sequence (B0F481 23-833 P510E): as the sequence (B0F481 23-833 P347A) above, with A325P, P488E counted along it
T4 sequence (B0F481 23-833 Y511F): as the sequence (B0F481 23-833 P347A) above, with A325P, Y489F counted along it
T2 sequence (B0F481 23-833 Y511V): as the sequence (B0F481 23-833 P347A) above, with A325P, Y489V counted along it
T10 sequence (B0F481 23-833 T512R): as the sequence (B0F481 23-833 P347A) above, with A325P, T490R counted along it
T6 sequence (B0F481 23-833 T512G): as the sequence (B0F481 23-833 P347A) above, with A325P, T490G counted along it
T9 sequence (B0F481 23-833 Q517H): as the sequence (B0F481 23-833 P347A) above, with A325P, Q495H counted along it
T11 sequence (B0F481 23-833 P508L): as the sequence (B0F481 23-833 P347A) above, with A325P, P486L counted along it
T3 sequence (B0F481 23-833 Y511R): as the sequence (B0F481 23-833 P347A) above, with A325P, Y489R counted along it
T5 sequence (B0F481 23-833 Y511M): as the sequence (B0F481 23-833 P347A) above, with A325P, Y489M counted along it

Compound | inhibition at 1 µM [1] | inhibition at 1 µM [2] | inhibition at 1 µM [3] | inhibition at 1 µM [4] | inhibition at 1 µM [5] | inhibition at 1 µM [6] | inhibition at 1 µM [7] | inhibition at 1 µM [8] | inhibition at 1 µM [9] | inhibition at 1 µM [10] | inhibition at 1 µM [11] | inhibition at 1 µM [12] | inhibition at 0.2 µM [1] | inhibition at 5 µM [1] | inhibition at 0.2 µM [2] | inhibition at 5 µM [2] | inhibition at 0.2 µM [3] | inhibition at 5 µM [3] | inhibition at 0.2 µM [4] | inhibition at 5 µM [4] | other results
CCOC(=O)c1nn(-c2ccc3c(c2)OC(F)(F)C(F)(F)O3)c2cccc(C(C)=O)c2c1=O [Compound A, ethyl 5-acetyl-4-oxo-1-(2,2,3,3-tetrafluoro-1,4-benzodioxin-6-yl)cinnoline-3-carboxylate] | 0% | 45% | 46% | 79% | 59% | 5% | 20% | 26% | 0% | 82% | 34% | 0% |  |  |  |  |  |  |  |  | 
CCn1c(C)c(-c2ccc(F)cc2F)c(=O)c(C(=O)O)c1-c1ccc(Cl)c(Cl)c1 [Compound C, 2-(3,4-dichlorophenyl)-5-(2,4-difluorophenyl)-1-ethyl-6-methyl-4-oxo-pyridine-3-carboxylic acid] | 86% | 94% | 99% | 67% | 99% | 57% | 27% | 38% | 44% | 95% | 80% | 25% | 33% | 98% | 28% | 97% | 80% | 99% | 44% | 90% | inhibition at 0.2 µM [5]: 76%; inhibition at 5 µM [5]: 100%; inhibition at 0.2 µM [6]: 17%; inhibition at 5 µM [6]: 92%; inhibition at 0.2 µM [7]: 3%; inhibition at 5 µM [7]: 51%; inhibition at 0.2 µM [8]: 8%; inhibition at 5 µM [8]: 74%; inhibition at 0.2 µM [9]: 11%; inhibition at 5 µM [9]: 77%; inhibition at 0.2 µM [10]: 74%; inhibition at 5 µM [10]: 99%; inhibition at 0.2 µM [11]: 37%; inhibition at 5 µM [11]: 92%; inhibition at 0.2 µM [12]: 4%; inhibition at 5 µM [12]: 71%
CCn1c(Cn2ccc(C(F)(F)F)n2)cc(=O)c(C(=O)O)c1-c1ccc(Cl)c(Cl)c1 [Compound L, 2-(3,4-dichlorophenyl)-1-ethyl-4-oxo-6-[[3-(trifluoromethyl)pyrazol-1-yl]methyl]pyridine-3-carboxylic acid] |  |  |  |  |  |  |  |  |  |  |  |  |  |  |  |  |  |  |  |  | inhibition at 0.01 µM [7]: 8%; inhibition at 0.075 µM [7]: 23%; inhibition at 0.5 µM [7]: 47%; inhibition at 0.01 µM [8]: 0%; inhibition at 0.075 µM [8]: 11%; inhibition at 0.5 µM [8]: 59%; inhibition at 0.01 µM [11]: 16%; inhibition at 0.075 µM [11]: 48%; inhibition at 0.5 µM [11]: 80%; inhibition at 0.01 µM [12]: 0%; inhibition at 0.075 µM [12]: 0%; inhibition at 0.5 µM [12]: 60%
CCn1c(-c2ccc(Cl)c(Cl)c2)c(C(=O)O)c(=O)c2cc(F)ccc21 [Compound M, 2-(3,4-dichlorophenyl)-1-ethyl-6-fluoro-4-oxo-quinoline-3-carboxylic acid] | 67% | 88% | 96% | 57% | 83% | 39% | 26% | 25% | 37% | 95% | 55% | 25% | 16% | 92% | 33% | 99% | 74% | 99% | 24% | 82% | inhibition at 0.2 µM [5]: 41%; inhibition at 5 µM [5]: 97%; inhibition at 0.2 µM [6]: 9%; inhibition at 5 µM [6]: 77%; inhibition at 0.2 µM [7]: 8%; inhibition at 5 µM [7]: 52%; inhibition at 0.2 µM [8]: 0%; inhibition at 5 µM [8]: 61%; inhibition at 0.2 µM [9]: 6%; inhibition at 5 µM [9]: 71%; inhibition at 0.2 µM [10]: 81%; inhibition at 5 µM [10]: 99%; inhibition at 0.2 µM [11]: 18%; inhibition at 5 µM [11]: 82%; inhibition at 0.2 µM [12]: 0%; inhibition at 5 µM [12]: 68%
